# Laboratory results taken from a melting point compilation (Tetko et al.; mined from patent text by program, amines drawn as free bases though some values may be those of a salt).
row,Compound,melting point [°C]
1,CC(Nc1c(-c2ccc(C#N)cc2)c(=O)c1=O)C(C)(C)C (centres undefined),192 to 194
2,Fc1cc(CC2(Cc3ccnc(F)c3)c3ccccc3-c3nccnc32)ccn1,119 to 120
3,COCCN1CCSc2ccc(Nc3ncc(Cl)c(N[C@@H]4CCCC[C@H]4NS(C)(=O)=O)n3)cc2C1,140 to 143
4,CC(c1ccsc1)N(O)C(N)=O (centres undefined),138 to 140
5,CSC(SC)=C1CCC2CC=CC=C2C1=O (centres undefined),54 to 56
6,O=C(O)CCc1cccc(-c2nc(=O)c3ccc(F)cc3s2)n1,215 to 217
7,CCCCCCCCCCCC(=O)OC1CC(c2ccccc2)N(O)C(c2ccccc2)C1C (centres undefined),84 to 91
8,CC(NC(=O)c1ccc([N+](=O)[O-])cc1)C(=O)O (centres undefined),199 to 200
9,COc1cc2[nH]ccc2cc1Br,110 to 111
10,O=C(NCc1ccccc1)c1ccc(Cl)nc1,113 to 114
11,CN(C)c1ccccc1C(=O)N1CCC(=O)c2ccc(Cl)cc21,85.5 to 89
12,CCCN(C(=O)n1ccnc1)c1ccccc1Cl,75.5 to 76.5
13,CC(=O)OC1CCC2(C)C(=CCC3C2CCC2(C)C(C(C)CCC(=O)O)CCC32)C1 (centres undefined),192 to 193
14,NC(=O)Cc1cnc(Nc2n[nH]c3ccc(-c4ncccc4Cl)cc23)s1,> 230
15,CCc1c(Sc2ccccc2)[nH]c(=O)[nH]c1=O,218 to 219
16,CCOC(=O)CN1CCC(CNC(=O)c2cc(Cl)c(N)[nH]c2=O)CC1,162 to 164
17,COc1ccc(CCc2cc3cc(C#N)ccc3o2)c(C(=O)O)c1,179 to 182
18,CN1C(=O)C2(COc3cc4c(cc32)OCCO4)c2c(OCc3ncccc3C(F)(F)F)cccc21 (centres undefined),157 to 159
19,CC(C)(C)OC(=O)N1CC[C@H](c2ccc(OCC3OCCO3)cc2)[C@@H](O)C1 (racemic),136 to 137
20,COc1c2c(cc3ccncc13)OCO2,144 to 145
21,O=C1CCCC2=C1C(c1cccc(F)c1)C1=C(CCCC1)N2 (centres undefined),249 to 251
22,Cn1c(COc2ccc(CC3SC(=O)NC3=O)cc2)nc2ccc(Oc3ccc(NC(=S)Nc4ccccc4)cc3)cc21 (centres undefined),130 to 131
23,Cc1nc(N2CCCC(NCc3ccc(C(F)(F)F)cc3)C2=O)sc1C(=O)NCc1ccccc1 (centres undefined),39 to 40
24,O=C(NCCCOc1ccncc1)c1ccccc1CO,108 to 109
25,O=C(Nc1ccc(C(=O)O)cc1)NN1CC=CCC1,> 240

row,Compound,melting point [°C]
1,Cn1ncc2[nH]c3ccc(Cc4cccc(C(N)=O)c4)cc3c(=O)c21,> 300
2,CC(=O)N1CCc2cc(C[C@@H](C)NCCOc3ccccc3OCC(F)(F)F)cc(C(N)=O)c21,144 to 146
3,C=C(C)COCC(C)C1CC=C2C3=C(CCC21C)C1(C)CCC(O)C(C)(C)C1CC3 (centres undefined),113 to 115
4,CN(c1cccc2cc(C3=NCC(CC(=O)N4CCC[C@H]4C(=O)O)S3)[nH]c12)S(=O)(=O)c1ccccc1C(F)(F)F (some centres undefined),132 to 135
5,CCOC(=O)C1=C(C(OC)OC)Nc2nccn2C1c1cccc([N+](=O)[O-])c1 (centres undefined),190 to 191
6,O=C(Nc1ccc2nc(CN3CCCCC3)ccc2c1)c1ccc(-c2ccccc2F)cc1,163 to 164
7,CCCc1c(OCCCS(=O)(=O)c2c(C(C)C)nn3ccccc23)ccc(C(C)=O)c1O,170
8,CON1C(=O)CC2(CCN(C(=O)OCc3ccccc3)CC2)C1=O,98
9,Cc1ccc(=O)n(-c2cccc(C(F)(F)F)c2)c1,95
10,CC1(C)CCC2CCCCC2C1NC=NC#N (centres undefined),228
11,CCC(=O)N(C(=O)CC)c1cc2c(cc1C)N(C(=O)CC)c1ccc(N(C)C)cc1N2C(=O)CC,198 to 199
12,O=C(N[C@@H]1CN[C@H]2CCO[C@H]21)C(F)(F)F (relative stereo),106 to 110
13,COc1ccc(-n2nc3c(cc2=O)CCSc2sc(Br)cc2-3)cc1,148 to 150
14,CCCCCCCCCCCCCCCC(Br)CC(=O)O (centres undefined),47 to 51
15,COc1c2ccccc2c(-c2c(-c3c4ccccc4c(OC)c4ccccc34)c2=O)c2ccccc12,265 to 270
16,CCC(CC)(CC(=O)Nc1cccc(OCc2ccc3ccc(C(F)(F)F)cc3n2)c1)C(=O)O,85 to 86
17,O=c1cc(N2CCCCC2)oc2c1ccc1ccccc12,205 to 207
18,CC(C)(Oc1ccc(CCNC(=O)C=Cc2ccccc2Cl)cc1)C(=O)O,145 to 146
19,COC(=O)c1ccc2c(c1)S(=O)(=O)c1ccccc1N=C2,181 to 182
20,CCC(CC)C(NS(=O)(=O)c1ccc(Br)s1)c1ccnn1-c1ccccc1 (centres undefined),120 to 121
21,COc1cccc(C(F)(F)F)c1C(=O)O,129 to 130
22,O=C1CCC(N2C(=O)c3cccc(OCc4ccc(CN5CCOCC5)cc4)c3C2=O)C(=O)N1 (centres undefined),205 to 207
23,CCOC(=O)N(C)CCCC1=CC2(CCCC2)c2ccccc21,90
24,Cc1oc(-c2ccccc2)nc1COc1ccc(CCCCc2nnn[nH]2)cc1,116 to 117
